Consider three compounds from patent publication US7396853B2, “2-phenyl-3,3,3-trifluoro-2-hydroxy-propionic acid derivatives” (Hoffmann-La Roche Inc., priority 2005, dated 2008).

The target in experiment [1] is T1, human GABABR1aR2a (Homo sapiens, UniProt O75899+Q9UBS5).
T1 construct: expressed in transfected cells
The experiment can be described thus: Intracellular Ca2+ mobilization assay in CHO-GABABR1aR2a-Gα16 cell (enhancer concentration-response at 10 nM GABA). Type of experiment: cell-based. Particulars: for EC50: enhancer potency in presence of 10 nM GABA (EC10), CHO cells expressing human GABABR1aR2a and Gα16; for Emax: maximum enhancing effect in presence of 10 nM GABA (EC10), normalized to 10 μM GABA alone = 100%, 10 nM GABA alone = 0%, enhancer 0.001-30 μM applied 15 min before GABA. As for the experimental part:
(§1) Intracellular Ca^2+ Mobilization Assay
(§2) The Chinese Hamster Ovary (CHO) cells stably expressing human GABABR1aR2a and Gα16 were seeded at 5×10^4 cells/well in the poly-D-lysine treated, 96-well, black/clear-bottomed plates (BD Biosciences, Palo Alto, Calif.). […] Probenecid (250 mM) (catalog No. P8761) was from Sigma, Buchs, Switzerland. […] The enhancers were applied 15 min before the application of the GABA. For GABA shift assay, concentration-response curves of GABA (0.0003-30 μM) were determined in the absence and presence of 10 μM enhancer. […] Responses were measured as peak increase in fluorescence minus basal, normalized to the maximal stimulatory effect induced by 10 μM GABA alone (considered 100%) and 10 nM GABA alone (considered 0%).

Experiment [2] concerns the target T1, human GABABR1aR2a. The experiment can be described thus: GABA shift assay (GABA concentration-response with and without 10 μM enhancer, FLIPR Ca2+ mobilization in CHO-GABABR1aR2a-Gα16 cell). The class given is cell-based. As to conditions: GABA 0.0003-30 μM, log ratio. As for the experimental part:
as §1, §2
(In general: Calcium assays in cells follow changes in intracellular calcium, usually with a dye or a luminescent sensor.)

T1 sequence (Q9UBS5 15-961 limits assumed): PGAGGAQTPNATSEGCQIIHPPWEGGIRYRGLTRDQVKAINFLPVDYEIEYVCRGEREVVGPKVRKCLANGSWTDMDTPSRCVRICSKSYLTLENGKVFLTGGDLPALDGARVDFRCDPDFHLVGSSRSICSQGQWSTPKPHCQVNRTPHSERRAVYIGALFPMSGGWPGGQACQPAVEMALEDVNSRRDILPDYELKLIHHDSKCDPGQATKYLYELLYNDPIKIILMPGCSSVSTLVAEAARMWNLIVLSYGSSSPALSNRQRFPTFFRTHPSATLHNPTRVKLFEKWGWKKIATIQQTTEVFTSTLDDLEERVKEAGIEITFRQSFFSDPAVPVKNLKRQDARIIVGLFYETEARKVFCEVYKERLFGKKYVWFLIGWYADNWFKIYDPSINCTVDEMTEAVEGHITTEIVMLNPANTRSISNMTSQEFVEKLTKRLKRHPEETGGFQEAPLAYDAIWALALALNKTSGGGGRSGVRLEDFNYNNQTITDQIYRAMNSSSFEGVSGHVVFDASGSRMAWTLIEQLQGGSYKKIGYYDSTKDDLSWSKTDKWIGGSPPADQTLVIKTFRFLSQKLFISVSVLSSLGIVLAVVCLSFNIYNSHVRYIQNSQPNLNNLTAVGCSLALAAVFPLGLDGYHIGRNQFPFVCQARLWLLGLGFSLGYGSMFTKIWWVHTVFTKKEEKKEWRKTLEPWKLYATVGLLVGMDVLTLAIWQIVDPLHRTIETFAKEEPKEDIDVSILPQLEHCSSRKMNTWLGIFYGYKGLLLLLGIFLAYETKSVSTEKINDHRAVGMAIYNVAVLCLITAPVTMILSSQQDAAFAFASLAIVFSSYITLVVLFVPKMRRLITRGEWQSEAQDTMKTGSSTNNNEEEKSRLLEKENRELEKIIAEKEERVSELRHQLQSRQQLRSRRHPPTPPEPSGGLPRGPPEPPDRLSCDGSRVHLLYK
T1 sequence (O75899 42-941): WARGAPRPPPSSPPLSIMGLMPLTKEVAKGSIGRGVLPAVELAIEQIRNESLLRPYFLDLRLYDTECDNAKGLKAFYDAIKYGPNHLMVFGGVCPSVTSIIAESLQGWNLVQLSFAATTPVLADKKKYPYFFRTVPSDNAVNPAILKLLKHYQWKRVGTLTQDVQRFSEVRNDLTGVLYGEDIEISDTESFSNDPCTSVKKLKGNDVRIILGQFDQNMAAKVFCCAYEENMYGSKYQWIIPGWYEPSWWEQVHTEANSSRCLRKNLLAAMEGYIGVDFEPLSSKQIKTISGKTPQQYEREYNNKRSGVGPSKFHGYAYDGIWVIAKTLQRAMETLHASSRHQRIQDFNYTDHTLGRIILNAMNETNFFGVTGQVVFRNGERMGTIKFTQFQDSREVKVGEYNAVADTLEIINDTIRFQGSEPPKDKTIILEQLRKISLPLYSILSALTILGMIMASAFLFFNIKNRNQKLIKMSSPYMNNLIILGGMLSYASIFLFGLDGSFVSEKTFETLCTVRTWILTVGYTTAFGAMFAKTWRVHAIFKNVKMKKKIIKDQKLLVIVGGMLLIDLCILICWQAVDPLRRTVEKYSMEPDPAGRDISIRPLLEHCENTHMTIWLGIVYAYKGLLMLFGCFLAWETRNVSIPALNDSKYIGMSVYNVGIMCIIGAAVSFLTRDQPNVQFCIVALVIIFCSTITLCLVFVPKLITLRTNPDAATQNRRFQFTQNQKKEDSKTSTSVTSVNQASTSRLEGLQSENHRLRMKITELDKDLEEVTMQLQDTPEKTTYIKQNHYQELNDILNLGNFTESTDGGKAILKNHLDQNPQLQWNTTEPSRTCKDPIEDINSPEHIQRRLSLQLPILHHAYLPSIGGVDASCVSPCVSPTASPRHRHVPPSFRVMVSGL

For orientation: EC50 means the concentration at which the effect is half-maximal. Usually Emax stands for the greatest response seen or fitted, relative to the assay's reference. With `CC(C)(C)c1cc(C(C)(C)C)c(O)c(C(O)(C(=O)O)C(F)(F)F)c1` (racemic) [Example 3, (R,S)-2-(3,5-Di-tert-butyl-2-hydroxy-phenyl)-3,3,3-trifluoro-2-hydroxy-propionic acid], on human GABABR1aR2a [1], the EC50 came out at 0.32 µM and the Emax was 70%. Moreover, the “GABA shift Log [EC50 (GABA + 10 μM cp)/EC50 (GABA alone)]” value (“GABA shift Log” below) at human GABABR1aR2a [2] is −1.

Regarding `COC(=O)C(O)(c1cc(C(C)(C)C)cc(C(C)(C)C)c1)C(F)(F)F` (racemic) [Example 7, (R,S)-2-(3,5-Di-tert-butyl-phenyl)-3,3,3-trifluoro-2-hydroxy-propionic acid methyl ester], on human GABABR1aR2a [1], the concentration giving a half-maximal response (EC50) is 2.1 µM and the Emax is 66%. Besides, the “GABA shift Log” value on human GABABR1aR2a [2] was −0.9.

Turning to `Cc1cc(C(C)(C)C)c2c(c1)C(O)(C(F)(F)F)C(=O)O2` (racemic) [Example 9, (R,S)-7-tert-Butyl-3-hydroxy-5-methyl-3-trifluoromethyl-3H-benzofuran-2-one], at human GABABR1aR2a [1], the EC50 came out at 0.36 µM and the Emax stood at 62%. For the same compound, at human GABABR1aR2a [2], the “GABA shift Log” value was −1.3.
